Results as given in PubChem BioAssay (NCI).
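Results reflect a 48-hour exposure of cells in 96-well plates to compound at five concentrations. Abbreviation: GI50, concentration required for 50% inhibition of growth. TGI denotes the concentration required for complete inhibition of growth.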

What was measured:
Assay in all cases: NCI tumour cell line growth inhibition, 48 h
NCI-H226 lung = test system: NCI-H226 lung
NCI-H522 lung = test system: NCI-H522 lung
OVCAR-8 ovarian = test system: OVCAR-8 ovarian
HCC-2998 colon = test system: HCC-2998 colon
SW-620 colon = test system: SW-620 colon
HCT-15 colon = test system: HCT-15 colon
MALME-3M melanoma = test system: MALME-3M melanoma
NCI-H460 lung = test system: NCI-H460 lung
MCF7 breast = test system: MCF7 breast
OVCAR-4 ovarian = test system: OVCAR-4 ovarian
SK-MEL-2 melanoma = test system: SK-MEL-2 melanoma
HL-60(TB) leukemia = test system: HL-60(TB) leukemia
HCT-116 colon = test system: HCT-116 colon
MDA-MB-231 breast = test system: MDA-MB-231 breast
A498 renal = test system: A498 renal
SF-295 CNS = test system: SF-295 CNS
RXF 393 renal = test system: RXF 393 renal
NCI-H23 lung = test system: NCI-H23 lung
SR leukemia = test system: SR leukemia
LOX IMVI melanoma = test system: LOX IMVI melanoma
UACC-62 melanoma = test system: UACC-62 melanoma
PC-3 prostate = test system: PC-3 prostate
SF-268 CNS = test system: SF-268 CNS
SK-MEL-28 melanoma = test system: SK-MEL-28 melanoma
EKVX NSCLC = test system: EKVX NSCLC
SK-OV-3 ovarian = test system: SK-OV-3 ovarian
COLO 205 colon = test system: COLO 205 colon
UACC-257 melanoma = test system: UACC-257 melanoma
M14 melanoma = test system: M14 melanoma
BT-549 breast = test system: BT-549 breast
HS 578T breast = test system: HS 578T breast
SF-539 CNS = test system: SF-539 CNS
RPMI-8226 leukemia = test system: RPMI-8226 leukemia
OVCAR-5 ovarian = test system: OVCAR-5 ovarian
SNB-75 CNS = test system: SNB-75 CNS
T-47D breast = test system: T-47D breast
CAKI-1 renal = test system: CAKI-1 renal
MDA-MB-435 = test system: MDA-MB-435
CCRF-CEM leukemia = test system: CCRF-CEM leukemia
ACHN renal = test system: ACHN renal
U251 CNS = test system: U251 CNS
A549 NSCLC = test system: A549 NSCLC
TK-10 renal = test system: TK-10 renal
SK-MEL-5 melanoma = test system: SK-MEL-5 melanoma
HT29 colon = test system: HT29 colon
HOP-62 NSCLC = test system: HOP-62 NSCLC
KM12 colon = test system: KM12 colon
NCI/ADR-RES ovarian = test system: NCI/ADR-RES ovarian
SNB-19 CNS = test system: SNB-19 CNS
DU-145 prostate = test system: DU-145 prostate
UO-31 renal = test system: UO-31 renal
SN12C renal = test system: SN12C renal
786-0 renal = test system: 786-0 renal
MOLT-4 leukemia = test system: MOLT-4 leukemia
IGROV1 ovarian = test system: IGROV1 ovarian
K-562 leukemia = test system: K-562 leukemia
HOP-92 NSCLC = test system: HOP-92 NSCLC

For `Oc1ccc(CSc2nnc(-c3cnccn3)n2-c2ccccc2)c2cccnc12`, the GI50 (NCI-H226 lung) was 3.78 µM, the TGI (NCI-H226 lung) was > 100 µM and the GI50 (NCI-H522 lung) was 0.353 µM. The TGI (NCI-H522 lung) was > 100 µM, the GI50 (OVCAR-8 ovarian) was 0.519 µM and the TGI (OVCAR-8 ovarian) was > 100 µM. For the same compound, the GI50 (HCC-2998 colon) was 2.9 µM, the TGI (HCC-2998 colon) was > 100 µM and the GI50 (SW-620 colon) was 0.624 µM. For the same compound, the TGI (SW-620 colon) was > 100 µM, the GI50 (HCT-15 colon) was 0.408 µM and the TGI (HCT-15 colon) was > 100 µM. The GI50 (MALME-3M melanoma) was 2.02 µM, the TGI (MALME-3M melanoma) was > 100 µM and the GI50 (NCI-H460 lung) was 0.412 µM. The TGI (NCI-H460 lung) was 16.4 µM, the GI50 (MCF7 breast) was 0.334 µM and the TGI (MCF7 breast) was > 100 µM. The GI50 (OVCAR-4 ovarian) was 3.65 µM, the TGI (OVCAR-4 ovarian) was > 100 µM and the GI50 (SK-MEL-2 melanoma) was 0.566 µM. The GI50 (HL-60(TB) leukemia) was 0.594 µM, the TGI (HL-60(TB) leukemia) was 5.09 µM and the GI50 (HCT-116 colon) was 0.37 µM. The TGI (HCT-116 colon) was > 100 µM, the GI50 (MDA-MB-231 breast) was 1.28 µM and the TGI (MDA-MB-231 breast) was > 86.5 µM. For the same compound, the GI50 (A498 renal) was 2.6 µM, the TGI (A498 renal) was 10.1 µM and the GI50 (SF-295 CNS) was 1 µM. For the same compound, the TGI (SF-295 CNS) was > 59.6 µM, the GI50 (RXF 393 renal) was 2.59 µM and the TGI (RXF 393 renal) was > 58.2 µM. For the same compound, the GI50 (NCI-H23 lung) was 0.496 µM, the TGI (NCI-H23 lung) was > 61 µM and the GI50 (SR leukemia) was 0.409 µM. The TGI (SR leukemia) was > 100 µM, the GI50 (LOX IMVI melanoma) was 0.559 µM and the TGI (LOX IMVI melanoma) was 13.4 µM. The GI50 (UACC-62 melanoma) was 1.18 µM, the TGI (UACC-62 melanoma) was 6.73 µM and the GI50 (PC-3 prostate) was 0.586 µM. For the same compound, the TGI (PC-3 prostate) was > 100 µM, the GI50 (SF-268 CNS) was 0.782 µM and the TGI (SF-268 CNS) was > 100 µM. For the same compound, the GI50 (SK-MEL-28 melanoma) was 2.07 µM, the TGI (SK-MEL-28 melanoma) was > 100 µM and the GI50 (EKVX NSCLC) was 1.87 µM. For the same compound, the TGI (EKVX NSCLC) was > 100 µM, the GI50 (SK-OV-3 ovarian) was 1.28 µM and the TGI (SK-OV-3 ovarian) was 18.2 µM. For the same compound, the GI50 (COLO 205 colon) was 11.7 µM, the TGI (COLO 205 colon) was > 100 µM and the GI50 (UACC-257 melanoma) was 2.16 µM. The TGI (UACC-257 melanoma) was > 28.7 µM, the GI50 (M14 melanoma) was 0.815 µM and the GI50 (BT-549 breast) was 0.736 µM. The TGI (BT-549 breast) was > 49.6 µM, the GI50 (HS 578T breast) was 0.522 µM and the TGI (HS 578T breast) was > 100 µM. For the same compound, the GI50 (SF-539 CNS) was 0.919 µM, the TGI (SF-539 CNS) was > 37.1 µM and the GI50 (RPMI-8226 leukemia) was 0.46 µM. The TGI (RPMI-8226 leukemia) was > 100 µM, the GI50 (OVCAR-5 ovarian) was 3.83 µM and the TGI (OVCAR-5 ovarian) was > 100 µM. The GI50 (SNB-75 CNS) was 0.707 µM, the TGI (SNB-75 CNS) was > 62.3 µM and the GI50 (T-47D breast) was 1.13 µM. The TGI (T-47D breast) was > 100 µM, the GI50 (CAKI-1 renal) was 1.98 µM and the TGI (CAKI-1 renal) was > 92.3 µM. The GI50 (MDA-MB-435) was 0.571 µM, the TGI (MDA-MB-435) was > 100 µM and the GI50 (CCRF-CEM leukemia) was 0.563 µM. The TGI (CCRF-CEM leukemia) was > 100 µM, the GI50 (ACHN renal) was 0.641 µM and the TGI (ACHN renal) was > 40.9 µM. For the same compound, the GI50 (U251 CNS) was 0.47 µM, the TGI (U251 CNS) was > 100 µM and the GI50 (A549 NSCLC) was 1.18 µM. The TGI (A549 NSCLC) was > 100 µM, the GI50 (TK-10 renal) was 3.23 µM and the TGI (TK-10 renal) was > 100 µM. The GI50 (SK-MEL-5 melanoma) was 0.638 µM, the GI50 (HT29 colon) was 3.99 µM and the TGI (HT29 colon) was > 100 µM. For the same compound, the GI50 (HOP-62 NSCLC) was 0.729 µM, the TGI (HOP-62 NSCLC) was 50.8 µM and the GI50 (KM12 colon) was 1.45 µM. For the same compound, the TGI (KM12 colon) was > 100 µM, the GI50 (NCI/ADR-RES ovarian) was 0.309 µM and the TGI (NCI/ADR-RES ovarian) was > 34.8 µM. The GI50 (SNB-19 CNS) was 0.522 µM, the TGI (SNB-19 CNS) was > 100 µM and the GI50 (DU-145 prostate) was 0.669 µM. The TGI (DU-145 prostate) was > 100 µM, the GI50 (UO-31 renal) was 0.458 µM and the TGI (UO-31 renal) was 15.3 µM. The GI50 (SN12C renal) was 0.392 µM, the TGI (SN12C renal) was > 100 µM and the GI50 (786-0 renal) was 3.7 µM. The TGI (786-0 renal) was 34 µM, the GI50 (MOLT-4 leukemia) was 0.707 µM and the TGI (MOLT-4 leukemia) was > 100 µM. For the same compound, the GI50 (IGROV1 ovarian) was 0.923 µM, the TGI (IGROV1 ovarian) was > 100 µM and the GI50 (K-562 leukemia) was 0.468 µM. For the same compound, the TGI (K-562 leukemia) was > 100 µM.

In the case of `COc1cc(/C=N/n2cnc3oc(-c4ccccc4)cc3c2=N)cc(CN2CCCC2)c1O`, the GI50 (NCI-H226 lung) is reported as 5.84 µM, the TGI (NCI-H226 lung) is reported as 34.1 µM and the GI50 (NCI-H522 lung) is reported as 2.22 µM. It also gave a TGI (NCI-H522 lung) of 5.79 µM, a GI50 (MALME-3M melanoma) of 1.9 µM and a TGI (MALME-3M melanoma) of 3.96 µM. For the same compound, the GI50 (SK-MEL-2 melanoma) was 21.2 µM, the TGI (SK-MEL-2 melanoma) was 47.3 µM and the GI50 (HL-60(TB) leukemia) was 3.51 µM. The TGI (HL-60(TB) leukemia) was 14.2 µM, the GI50 (MDA-MB-231 breast) was 1.49 µM and the TGI (MDA-MB-231 breast) was 2.9 µM. The GI50 (A498 renal) was 12.9 µM, the TGI (A498 renal) was 40.2 µM and the GI50 (SF-295 CNS) was 1.89 µM. For the same compound, the TGI (SF-295 CNS) was 3.9 µM, the GI50 (RXF 393 renal) was 1.35 µM and the TGI (RXF 393 renal) was 3.43 µM. It also gave a GI50 (UACC-62 melanoma) of 19.6 µM, a TGI (UACC-62 melanoma) of 40.8 µM and a GI50 (PC-3 prostate) of 1.5 µM. For the same compound, the TGI (PC-3 prostate) was 3.13 µM, the GI50 (SK-MEL-28 melanoma) was 1.82 µM and the TGI (SK-MEL-28 melanoma) was 3.56 µM. The GI50 (EKVX NSCLC) was 1.83 µM, the TGI (EKVX NSCLC) was 3.77 µM and the GI50 (SK-OV-3 ovarian) was 18 µM. The TGI (SK-OV-3 ovarian) was 38.5 µM, the GI50 (UACC-257 melanoma) was 20.5 µM and the TGI (UACC-257 melanoma) was 43.8 µM. The GI50 (BT-549 breast) was 23.6 µM, the TGI (BT-549 breast) was 58.4 µM and the GI50 (HS 578T breast) was 13.5 µM. The TGI (HS 578T breast) was 34 µM, the GI50 (SF-539 CNS) was 1.75 µM and the TGI (SF-539 CNS) was 3.46 µM. For the same compound, the GI50 (RPMI-8226 leukemia) was 2.08 µM, the TGI (RPMI-8226 leukemia) was 4.82 µM and the GI50 (OVCAR-5 ovarian) was 1.67 µM. It also gave a TGI (OVCAR-5 ovarian) of 3.21 µM, a GI50 (SNB-75 CNS) of 0.856 µM and a TGI (SNB-75 CNS) of 2.26 µM. The GI50 (T-47D breast) was 1.96 µM, the TGI (T-47D breast) was 4.69 µM and the GI50 (CAKI-1 renal) was 1.4 µM. The TGI (CAKI-1 renal) was 2.88 µM, the GI50 (MDA-MB-435) was 1.69 µM and the TGI (MDA-MB-435) was 3.19 µM. It also gave a GI50 (CCRF-CEM leukemia) of 1.96 µM, a TGI (CCRF-CEM leukemia) of 5.75 µM and a GI50 (ACHN renal) of 1.61 µM. The TGI (ACHN renal) was 3.18 µM, the GI50 (TK-10 renal) was 26.4 µM and the TGI (TK-10 renal) was 49.2 µM. For the same compound, the GI50 (SK-MEL-5 melanoma) was 3.49 µM, the TGI (SK-MEL-5 melanoma) was 15.9 µM and the GI50 (HOP-62 NSCLC) was 2.02 µM. The TGI (HOP-62 NSCLC) was 5.04 µM, the GI50 (NCI/ADR-RES ovarian) was 1.96 µM and the TGI (NCI/ADR-RES ovarian) was 4.04 µM. The GI50 (DU-145 prostate) was 1.83 µM, the TGI (DU-145 prostate) was 3.35 µM and the GI50 (UO-31 renal) was 1.42 µM. The TGI (UO-31 renal) was 3.08 µM, the GI50 (SN12C renal) was 1.58 µM and the TGI (SN12C renal) was 3.25 µM. The GI50 (MOLT-4 leukemia) was 2.18 µM, the TGI (MOLT-4 leukemia) was 6.49 µM and the GI50 (HOP-92 NSCLC) was 1.92 µM. The TGI (HOP-92 NSCLC) was 13 µM.
